target: T1, human macrophage elastase (HME/hMMP-12) (Homo sapiens, UniProt P39900); assay: In vitro HME inhibition test (standard or high-sensitivity); assay type: biochemical; details: in some cases mean values
T1 construct: 0.5 nM HME; purchased R&D Systems 917-MP
Description: The potency of the compounds according to the invention with respect to HME (MMP-12) is determined in an in vitro inhibition test. The HME-mediated amidolytic cleavage of a suitable peptide substrate leads to an increase in fluorescent light therein. The signal intensity of the fluorescent light is directly proportional to the enzyme activity. The active concentration of a test compound at which half the enzyme is inhibited (50% signal intensity of the fluorescent light) is reported as the IC50 value.
In a 384 hole microtiter plate, in a total test volume of 41 the test buffer (0.1 M HEPES pH 7.4, 0.15 M NaCl, 0.03 M CaCl2, 0.004 mM ZnCl2, 0.02 M EDTA, 0.005% Brij®), the enzyme (0.5 nM HME; from R&D Systems, 917-MP, autocatalytic activation according to the manufacturer's instructions) and the intramolecularly quenched substrate [5 μM Mca-Pro-Leu-Gly-Leu-Glu-Glu-Ala-Dap(Dnp)-NH2; Bachem, M-2670] are incubated in the absence and presence of the test substance (as a solution in DMSO) at 37° C. for two hours. The fluorescence intensity of the test mixtures is measured (excitation […], emission 393 nm). The IC50 values are ascertained by plotting the fluorescent light intensity against the active ingredient concentration.
In this case, an enzyme concentration ten times lower is used (final concentration, for example, 0.05 nM) in order to achieve an elevated test sensitivity. The incubation period chosen for the test is correspondingly longer (for example 16 hours).

T1 sequence (P39900 106-470): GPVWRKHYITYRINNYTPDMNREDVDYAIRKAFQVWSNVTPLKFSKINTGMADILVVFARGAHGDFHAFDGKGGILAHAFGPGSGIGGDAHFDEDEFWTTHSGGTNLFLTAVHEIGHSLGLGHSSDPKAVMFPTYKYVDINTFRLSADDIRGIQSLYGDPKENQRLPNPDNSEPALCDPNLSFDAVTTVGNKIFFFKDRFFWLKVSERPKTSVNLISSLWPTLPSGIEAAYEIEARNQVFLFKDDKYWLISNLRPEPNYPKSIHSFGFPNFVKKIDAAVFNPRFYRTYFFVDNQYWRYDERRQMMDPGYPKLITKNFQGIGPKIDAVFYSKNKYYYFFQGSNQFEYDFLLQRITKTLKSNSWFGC

SMILES | IC50
CCCOc1ccc(C(=O)[C@@H]2CC[C@H](Cn3nnc4ccc(C(F)(F)F)cc4c3=O)[C@H]2C(=O)O)cc1 (single isomer, unassigned) [Example 70, (+)-(1RS,2SR,5RS)-2-{[4-Oxo-6-(trifluoromethyl)-1,2,3-benzotriazin-3(4H)-yl]methyl}-5-(4-propoxybenzoyl)cyclopentanecarboxylic acid] | 31 pM
CCCCCCOc1ccc(C(=O)[C@@H]2CC[C@H](Cn3nnc4ccc(C(F)(F)F)cc4c3=O)[C@H]2C(=O)O)cc1 (single isomer, unassigned) [Example 59, (−)-(1RS,2RS,5SR)-2-[4-(Hexyloxy)benzoyl]-5-{[4-oxo-6-(trifluoromethyl)-1,2,3-benzotriazin-3(4H)-yl]methyl}cyclopentanecarboxylic acid] | 4200 pM
O=C(O)[C@H]1[C@H](Cn2nnc3ccc(C(F)(F)F)cc3c2=O)CC[C@@H]1C(=O)c1ccc(OCc2ccc(Cl)c(Cl)c2)cc1 (racemic) [Example 27, (+/−)-(1RS,2RS,5SR)-2-{4-[(3,4-Dichlorobenzyl)oxy]benzoyl}-5-{[4-oxo-6-(trifluoromethyl)-1,2,3-benzotriazin-3(4H)-yl]methyl}cyclopentanecarboxylic acid] | 32 pM
CCCCCOc1ccc(C(=O)[C@@H]2CC[C@H](Cn3nnc4ccc(C(F)(F)F)cc4c3=O)[C@H]2C(=O)O)cc1 (single isomer, unassigned) [Example 64, (+)-(1RS,2SR,5RS)-2-{[4-Oxo-6-(trifluoromethyl)-1,2,3-benzotriazin-3(4H)-yl]methyl}-5-[4-(pentyloxy)benzoyl]cyclopentanecarboxylic acid] | 68 pM
O=C(O)[C@@H]1[C@@H](Cn2nnc3ccc(C(F)(F)F)cc3c2=O)CC[C@H]1C(=O)c1ccc(OCC2CCC2)cc1 (single isomer, unassigned) [Example 47, (+)-(1RS,2RS,5SR)-2-[4-(Cyclobutylmethoxy)benzoyl]-5-{[4-oxo-6-(trifluoromethyl)-1,2,3-benzotriazin-3(4H)-yl]methyl}cyclopentanecarboxylic acid] | 25 pM
O=C(O)[C@H]1[C@H](Cn2nnc3ccc(C(F)(F)F)cc3c2=O)CC[C@@H]1C(=O)c1ccc(OCc2cccc(Cl)c2)cc1 (racemic) [Example 21, (+/−)-(1RS,2RS,5SR)-2-{4-[(3-Chlorobenzyl)oxy]benzoyl}-5-{[4-oxo-6-(trifluoromethyl)-1,2,3-benzotriazin-3(4H)-yl]methyl}cyclopentanecarboxylic acid] | 45 pM
O=C(O)[C@@H]1[C@@H](Cn2nnc3ccc(C(F)(F)F)cc3c2=O)CC[C@H]1C(=O)c1ccc(OCc2cccc(C(F)(F)F)c2)cc1 (single isomer, unassigned) [Example 20, (−)-(1RS,2SR,5RS)-2-{[4-Oxo-6-(trifluoromethyl)-1,2,3-benzotriazin-3(4H)-yl]methyl}-5-(4-{[3-(trifluoromethyl)benzyl]oxy}benzoyl)cyclopentanecarboxylic acid] | 4600 pM
O=C(O)[C@H]1[C@H](Cn2nnc3ccc(C(F)(F)F)cc3c2=O)CC[C@@H]1C(=O)c1ccc(OCCC2CCCCC2)cc1 (racemic) [Example 50, (+/−)-(1RS,2RS,5SR)-2-[4-(2-Cyclohexylethoxy)benzoyl]-5-{[4-oxo-6-(trifluoromethyl)-1,2,3-benzotriazin-3(4H)-yl]methyl}cyclopentanecarboxylic acid] | 36 pM
O=C(O)[C@H]1[C@H](Cn2nnc3ccc(C(F)(F)F)cc3c2=O)CC[C@@H]1C(=O)c1ccc(SCCc2ccccc2)cc1 (racemic) [Example 82, (+/−)-(1RS,2SR,5RS)-2-{[4-Oxo-6-(trifluoromethyl)-1,2,3-benzotriazin-3(4H)-yl]methyl}-5-{4-[(2-phenylethyl)sulphanyl]benzoyl}cyclopentanecarboxylic acid] | 120 pM
CCCCCOc1ccc(C(=O)[C@H]2CC[C@@H](Cn3nnc4ccc(C(F)(F)F)cc4c3=O)[C@@H]2C(=O)O)cc1 (racemic) [Example 63, (+/−)-(1RS,2SR,5RS)-2-{[4-Oxo-6-(trifluoromethyl)-1,2,3-benzotriazin-3(4H)-yl]methyl}-5-[4-(pentyloxy)benzoyl]cyclopentanecarboxylic acid] | 15 pM
O=C(O)[C@H]1[C@H](Cn2nnc3ccc(C(F)(F)F)cc3c2=O)CC[C@@H]1C(=O)c1ccc(OCC2CC2)cc1 (racemic) [Example 49, (+/−)-(1RS,2RS,5SR)-2-[4-(Cyclopropylmethoxy)benzoyl]-5-{[4-oxo-6-(trifluoromethyl)-1,2,3-benzotriazin-3(4H)-yl]methyl}cyclopentanecarboxylic acid] | 140 pM
CCCCCOc1ccc(C(=O)[C@@H]2CC[C@H](Cn3nnc4ccc(C)cc4c3=O)[C@H]2C(=O)O)cc1 (single isomer, unassigned) [Example 125, (−)-(1RS,2SR,5RS)-2-[(6-Methyl-4-oxo-1,2,3-benzotriazin-3(4H)-yl)methyl]-5-[4-(pentyloxy)benzoyl]cyclopentanecarboxylic acid] | 6700 pM
O=C(O)[C@H]1[C@H](Cn2nnc3ccc(C(F)(F)F)cc3c2=O)CC[C@@H]1C(=O)c1ccc(OCCc2ccccc2)cc1 (racemic) [Example 36, (+/−)-(1RS,2SR,5RS)-2-{[4-Oxo-6-(trifluoromethyl)-1,2,3-benzotriazin-3(4H)-yl]methyl}-5-[4-(2-phenylethoxy)benzoyl]cyclopentanecarboxylic acid] | 130 pM
Cc1ccc2nnn(C[C@H]3CC[C@@H](C(=O)c4ccc(OCc5cccc(C(F)(F)F)c5)cc4)[C@@H]3C(=O)O)c(=O)c2c1 (single isomer, unassigned) [Example 102, (−)-(1RS,2SR,5RS)-2-[(6-Methyl-4-oxo-1,2,3-benzotriazin-3(4H)-yl)methyl]-5-(4-{[3-(trifluoromethyl)benzyl]oxy}benzoyl)cyclopentanecarboxylic acid] | 8700 pM
O=C(O)[C@@H]1[C@@H](Cn2nnc3ccc(C(F)(F)F)cc3c2=O)CC[C@H]1C(=O)c1ccc(OCc2cccc(Cl)c2)cc1 (single isomer, unassigned) [Example 22, (−)-(1RS,2RS,5SR)-2-{4-[(3-Chlorobenzyl)oxy]benzoyl}-5-{[4-oxo-6-(trifluoromethyl)-1,2,3-benzotriazin-3(4H)-yl]methyl}cyclopentanecarboxylic acid] | 170000 pM
O=C(O)[C@@H]1[C@@H](Cn2nnc3ccc(C(F)(F)F)cc3c2=O)CC[C@H]1C(=O)c1ccc(OCCc2ccccc2)cc1 (single isomer, unassigned) [Example 38, (−)-(1RS,2SR,5RS)-2-{[4-Oxo-6-(trifluoromethyl)-1,2,3-benzotriazin-3(4H)-yl]methyl}-5-[4-(2-phenylethoxy)benzoyl]cyclopentanecarboxylic acid] | 350000 pM
Cc1ccc2nnn(C[C@H]3CC[C@@H](C(=O)c4ccc(OCC5CCCCC5)cc4)[C@@H]3C(=O)O)c(=O)c2c1 (single isomer, unassigned) [Example 118, (−)-(1RS,2RS,5SR)-2-[4-(Cyclohexylmethoxy)benzoyl]-5-[(6-methyl-4-oxo-1,2,3-benzotriazin-3(4H)-yl)methyl]cyclopentanecarboxylic acid] | 150000 pM
CCCCCOc1ccc(C(=O)[C@@H]2CC[C@H](Cn3nnc4ccc(C)cc4c3=O)[C@H]2C(=O)O)cc1 (single isomer, unassigned) [Example 124, (+)-(1RS,2SR,5RS)-2-[(6-Methyl-4-oxo-1,2,3-benzotriazin-3(4H)-yl)methyl]-5-[4-(pentyloxy)benzoyl]cyclopentanecarboxylic acid] | 62 pM
CCCCCOc1ccc(C(=O)[C@@H]2CC[C@H](Cn3nnc4ccccc4c3=O)[C@H]2C(=O)O)cc1 (single isomer, unassigned) [Example 8, (+)-(1RS,2SR,5RS)-2-[(4-Oxo-1,2,3-benzotriazin-3(4H)-yl)methyl]-5-[4-(pentyloxy)benzoyl]cyclopentanecarboxylic acid] | 210 pM
CC(C)COc1ccc(C(=O)[C@H]2CC[C@@H](Cn3nnc4ccc(C(F)(F)F)cc4c3=O)[C@@H]2C(=O)O)cc1 (racemic) [Example 72, (+/−)-(1RS,2RS,5SR)-2-(4-Isobutoxybenzoyl)-5-{[4-oxo-6-(trifluoromethyl)-1,2,3-benzotriazin-3(4H)-yl]methyl}cyclopentanecarboxylic acid] | 130 pM
CCCCCOc1ccc(C(=O)[C@@H]2CC[C@H](Cn3nnc4ccc(C(F)(F)F)cc4c3=O)[C@H]2C(=O)O)cc1 (single isomer, unassigned) [Example 65, (−)-(1RS,2SR,5RS)-2-{[4-Oxo-6-(trifluoromethyl)-1,2,3-benzotriazin-3(4H)-yl]methyl}-5-[4-(pentyloxy)benzoyl]cyclopentanecarboxylic acid] | 1200 pM
CC(C)CCOc1ccc(C(=O)[C@@H]2CC[C@H](Cn3nnc4ccc(C(F)(F)F)cc4c3=O)[C@H]2C(=O)O)cc1 (single isomer, unassigned) [Example 62, (−)-(1RS,2RS,5SR)-2-[4-(3-Methylbutoxy)benzoyl]-5-{[4-oxo-6-(trifluoromethyl)-1,2,3-benzotriazin-3(4H)-yl]methyl}cyclopentanecarboxylic acid] | 4700 pM

— patent US20170022171A1, “2,5-DISUBSTITUTED CYCLOPENTANECARBOXYLIC ACIDS AND THEIR USE” (Bayer Pharma Aktiengesellschaft, priority 2014, published 2017)
